Data set [1] has as its target T1, Adenosine A2 receptor (UniProt P29275+P29274). To be noted: Canis lupus familiaris.
Description: Molar potency ratio (MPR) against adenosine A2 receptor of canine coronary artery
A short description of data set [2]: Index of hydrophobicity (k'). It counts as ADME.
Data set [3] concerns the target T1, Adenosine A2 receptor. Put plainly: Acidic dissociation constant(pKa) against A2 adenosine receptor of coronary artery. Format: protein assay. Particulars: Canis lupus familiaris.
For data set [4], the target named is T1, Adenosine A2 receptor. The data set can be described thus: Association constant against A2 adenosine receptor. It counts as protein assay. To be noted: Canis lupus familiaris.
Data set [5] concerns the target T1, Adenosine A2 receptor. The data set can be described thus: Maximum increase in coronary flow, percent of control, and nucleoside concentration in coronary plasma at 28 uM. Format: functional. Particulars: Canis lupus familiaris.
Data set [6] has as its target T1, Adenosine A2 receptor. To be noted: Canis lupus familiaris. This is another data set of the same source.
The nature of data set [7]: Estimated ionization constant(pKa). It counts as physicochemical.
The target in data set [8] is T1, Adenosine A2 receptor. The data set can be described thus: Molar potency ratio (MPR) against A2 adenosine receptor of coronary artery. Particulars: Canis lupus familiaris. Format: functional.
The target of data set [9] is T1, Adenosine A2 receptor. Put plainly: Maximum increase in coronary flow, percent of control, and nucleoside concentration in coronary plasma at 17 uM. Format: functional. To be noted: Canis lupus familiaris.
Data set [10] has as its target T1, Adenosine A2 receptor. The data set can be described thus: Maximum increase in coronary flow, percent of control, and nucleoside concentration in coronary plasma at 12 uM. It counts as functional. Particulars: Canis lupus familiaris.

T1 sequence (P29274 whole entry, looked up): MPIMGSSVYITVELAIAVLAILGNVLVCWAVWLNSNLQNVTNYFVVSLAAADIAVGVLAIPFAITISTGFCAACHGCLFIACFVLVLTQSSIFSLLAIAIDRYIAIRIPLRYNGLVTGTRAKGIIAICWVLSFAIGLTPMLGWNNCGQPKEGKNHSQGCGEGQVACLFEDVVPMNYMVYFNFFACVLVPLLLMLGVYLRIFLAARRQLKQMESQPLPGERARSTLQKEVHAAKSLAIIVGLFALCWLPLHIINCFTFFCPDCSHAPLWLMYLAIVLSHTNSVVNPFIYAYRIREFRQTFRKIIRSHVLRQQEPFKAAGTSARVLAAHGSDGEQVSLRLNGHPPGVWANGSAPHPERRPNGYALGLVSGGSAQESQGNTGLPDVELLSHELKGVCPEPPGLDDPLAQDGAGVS
T1 sequence (P29275 whole entry, looked up): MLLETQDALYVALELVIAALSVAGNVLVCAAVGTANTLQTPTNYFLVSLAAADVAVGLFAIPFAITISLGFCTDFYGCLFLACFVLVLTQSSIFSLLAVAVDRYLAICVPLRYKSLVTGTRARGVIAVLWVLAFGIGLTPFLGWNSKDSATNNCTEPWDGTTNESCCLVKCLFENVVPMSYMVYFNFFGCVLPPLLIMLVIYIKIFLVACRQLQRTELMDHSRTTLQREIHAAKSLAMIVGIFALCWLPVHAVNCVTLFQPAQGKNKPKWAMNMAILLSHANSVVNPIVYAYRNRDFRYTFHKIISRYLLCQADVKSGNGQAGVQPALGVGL

For the compound `OC[C@H]1O[C@@H](n2cnc3c(Nc4ccccc4)ncnc32)[C@H](O)[C@@H]1O` [N6-PHENYLADENOSINE], in data set [1], the MPR came to 1.4. Further, the “k'” value in data set [2] amounted to 1.29. In data set [3], this compound returned a pka of 2.73. Moreover, in data set [4], the K is 3160 M⁻¹.
Regarding `COc1ccc(CCNc2ncnc3c2ncn3C2O[C@H](CO)[C@@H](O)[C@H]2O)cc1` (some centres undefined), the MPR in [1] came to 0.29. In addition, the “k'” value in data set [2] came to 1.93. This compound also gave a pka in data set [3] of 3.49.
As for `COc1cc(Nc2ncnc3c2ncn3C2O[C@H](CO)[C@@H](O)[C@H]2O)cc(OC)c1OC` (some centres undefined), the “k'” value in [2] was found to be 1.54. For the same compound, the pka in data set [3] is 2.8. The compound also gave an Activity in data set [5] of 28%.
For `OC[C@H]1OC(n2cnc3c(Nc4cccc(Cl)c4)ncnc32)[C@H](O)[C@@H]1O` (some centres undefined), in data set [1], the MPR is 0.2. For the same compound, the “k'” value in data set [2] is 5.05. The pka in data set [3] was found to be 2.61.
In the same order, the values of `OC[C@H]1O[C@@H](n2cnc3c(NCCc4ccccc4)ncnc32)[C@H](O)[C@@H]1O` are 2, 1.77 and 3.57.
On to `OC[C@H]1OC(n2cnc3c(NCCc4ccccc4Cl)ncnc32)[C@H](O)[C@@H]1O` (some centres undefined), for which, in data set [1], the MPR came to 0.67. The “k'” value in [2] is given as 3.64. The compound further displayed a pka in data set [3] of 3.27. Further, the K in data set [4] turned out to be 32400 M⁻¹.
In [1], `OC[C@H]1O[C@@H](n2cnc3c(NCc4ccc(F)cc4)ncnc32)[C@H](O)[C@@H]1O` registered an MPR of 0.36. The “k'” value in data set [2] is 1.57. For the same compound, the pka in [3] was 3.32.
In [1], `Cc1ccccc1Nc1ncnc2c1ncn2C1O[C@H](CO)[C@@H](O)[C@H]1O` (some centres undefined) showed an MPR of 0.65. In addition, the “k'” value in data set [2] is listed as 1.4. The same compound returned a pka in data set [3] of 2.98.
In the same order, the values of `OC[C@H]1OC(n2cnc3c(Nc4ccccc4F)ncnc32)[C@H](O)[C@@H]1O` (some centres undefined) are 0.91, 1.48 and 2.39.
For the compound `OC[C@H]1OC(n2cnc3c(NC4CCc5ccccc5C4)ncnc32)[C@H](O)[C@@H]1O` (some centres undefined), in [2], the “k'” value was determined as 4.89. Moreover, in [6], the MPR was determined as 0.14.
`COc1ccccc1Nc1ncnc2c1ncn2C1O[C@H](CO)[C@@H](O)[C@H]1O` (some centres undefined) showed an MPR in [1] of 0.28. Moreover, the “k'” value in data set [2] is 1.93. In [3], the pka is 2.97.
On the same counts, the results for `Cc1ccccc1CNc1ncnc2c1ncn2[C@@H]1O[C@H](CO)[C@@H](O)[C@H]1O` are 1.8, 2.76 and 3.22.
In turn, `OC[C@H]1O[C@@H](n2cnc3c(NCc4ccccc4)ncnc32)[C@H](O)[C@@H]1O` [N6-BENZYLADENOSINE] returned an MPR in [1] of 0.52. In addition, the “k'” value in data set [2] came out at 1.21. In [3], this compound displayed a pka of 3.07.
Consider `OC[C@H]1OC(n2cnc3c(Nc4ccc(F)cc4)ncnc32)[C@H](O)[C@@H]1O` (some centres undefined), for which the MPR in data set [1] is 1.5. Moreover, the “k'” value in data set [2] stood at 1.68. The same compound registered a pka in data set [3] of 2.65. Moreover, in [4], the K amounted to 3560 M⁻¹.
As for `COc1ccc(CNc2ncnc3c2ncn3[C@@H]2O[C@H](CO)[C@@H](O)[C@H]2O)cc1`, in [2], the “k'” value is recorded as 1.66. Besides, the pka in data set [3] came out at 3.06. Also, in [6], the MPR turned out to be 0.04.
Compound `OC[C@H]1OC(n2cnc3c(NCCc4ccc(Cl)cc4)ncnc32)[C@H](O)[C@@H]1O` (some centres undefined) displayed an MPR in [1] of 0.41. Besides, in data set [2], the “k'” value turned out to be 4.07. This compound also came in with a pka in data set [3] of 3.23.
On the same counts, the results for `OC[C@H]1OC(n2cnc3c(NCCc4cccnc4)ncnc32)[C@H](O)[C@@H]1O` (some centres undefined) are 3, 0.38 and below 1.
In the same order, the values of `OC[C@H]1OC(n2cnc3c(NCCc4ccccn4)ncnc32)[C@H](O)[C@@H]1O` (some centres undefined) are 1, 0.39 and below 1.
In the same order, the values of `Cc1ccc(CNc2ncnc3c2ncn3[C@@H]2O[C@H](CO)[C@@H](O)[C@H]2O)cc1` are 0.04, 3.04 and 3.19.
For the compound `OC[C@H]1OC(n2cnc3c(NCCc4ccccc4F)ncnc32)[C@H](O)[C@@H]1O` (some centres undefined), the MPR in data set [1] was determined as 1.9. In data set [2], the “k'” value is reported as 2.36. Moreover, the pka in data set [3] worked out at 3.19.
On the same counts, the results for `OC[C@H]1O[C@@H](n2cnc3c(NCc4ccccc4Cl)ncnc32)[C@H](O)[C@@H]1O` are 1.2, 3.12 and 3.06.
In the same order, the values of `OC[C@H]1OC(n2cnc3c(Nc4ccc(Cl)cc4)ncnc32)[C@H](O)[C@@H]1O` (some centres undefined) are 0.94, 4.96 and 2.46.
`OC[C@H]1O[C@@H](n2cnc3c(NCc4ccc(Cl)cc4)ncnc32)[C@H](O)[C@@H]1O` came in with an MPR in data set [1] of 0.005. The “k'” value in data set [2] worked out at 3.44. For the same compound, in [3], the pka is 3.61.
Consider `OC[C@H]1OC(n2cnc3c(NCCc4ccc(F)cc4)ncnc32)[C@H](O)[C@@H]1O` (some centres undefined), for which the MPR in data set [1] is 2.1. Also, the “k'” value in [2] is listed as 2.39. Moreover, in data set [3], the pka was found to be 3.32. The same compound showed a K in [4] of 10300 M⁻¹.
`Cc1ccccc1CCNc1ncnc2c1ncn2C1O[C@H](CO)[C@@H](O)[C@H]1O` (some centres undefined): the MPR in [1] came to 0.67. The “k'” value in [2] is 4.52. In [3], this compound returned a pka of 3.32.
Regarding `OC[C@H]1OC(n2cnc3c(Nc4cccc(F)c4)ncnc32)[C@H](O)[C@@H]1O` (some centres undefined), the MPR in data set [1] is 0.43. Also, the “k'” value in data set [2] was 2.36. The same compound showed a pka in data set [3] of 2.66. The compound further came in with a K in [4] of 6360 M⁻¹.
For orientation: pKa means the negative logarithm of the acid dissociation constant. `COc1ccccc1CCNc1ncnc2c1ncn2C1O[C@H](CO)[C@@H](O)[C@H]1O` (some centres undefined): the MPR in data set [1] was determined as 1.2. In data set [7], the pKa was 3.56. The “k'” value in [2] was determined as 2.57.
`Cc1cccc(Nc2ncnc3c2ncn3C2O[C@H](CO)[C@@H](O)[C@H]2O)c1` (some centres undefined) yielded an MPR in [1] of 0.023. For the same compound, in data set [2], the “k'” value was 3.28. This compound displayed a pka in data set [3] of 2.79.
In the case of `COc1cccc(Nc2ncnc3c2ncn3C2O[C@H](CO)[C@@H](O)[C@H]2O)c1` (some centres undefined), the MPR in [1] is 0.26. Moreover, the “k'” value in [2] turned out to be 1.32. In data set [3], this compound had a pka of 2.59.
On the same counts, the results for `OC[C@H]1OC(n2cnc3c(Nc4ccccc4Cl)ncnc32)[C@H](O)[C@@H]1O` (some centres undefined) are 0.42, 2.36 and 2.76.
On the same counts, the results for `Cc1ccc(CCNc2ncnc3c2ncn3C2O[C@H](CO)[C@@H](O)[C@H]2O)cc1` (some centres undefined) are 0.46, 4.76 and 3.4.
On the same counts, the results for `Cc1ccc(Nc2ncnc3c2ncn3C2O[C@H](CO)[C@@H](O)[C@H]2O)cc1` (some centres undefined) are 1.3, 3.28 and 2.79.
The compound `OC[C@H]1OC(n2cnc3c(NCc4ccccc4F)ncnc32)[C@H](O)[C@@H]1O` (some centres undefined) yielded an MPR in data set [1] of 0.57. The “k'” value in data set [2] came to 1.57. The same compound registered a pka in data set [3] of 3.08.
The compound `C[C@H](Cc1ccccc1)Nc1ncnc2c1ncn2[C@@H]1O[C@H](CO)[C@@H](O)[C@H]1O` (stereo in doubt; 1) registered an MPR in data set [6] of 4.3.
For `COc1ccc(Nc2ncnc3c2ncn3[C@@H]2O[C@H](CO)[C@@H](O)[C@H]2O)cc1`, the MPR in data set [1] amounted to 3.5. For the same compound, the “k'” value in data set [2] is on record as 1.36. In data set [3], this compound yielded a pka of 2.95.
With `COc1ccccc1CNc1ncnc2c1ncn2[C@@H]1O[C@H](CO)[C@@H](O)[C@H]1O`, the “k'” value in data set [2] is listed as 2.31. The pka in [3] was found to be 3.3. For the same compound, the MPR in [8] is 0.7.
As to `Cc1cccc(C)c1Nc1ncnc2c1ncn2C1O[C@H](CO)[C@@H](O)[C@H]1O` (some centres undefined), the “k'” value in data set [2] stood at 1.52. This compound also yielded an Activity in [9] of 22%.
As to `Cc1cc(C)cc(Nc2ncnc3c2ncn3C2O[C@H](CO)[C@@H](O)[C@H]2O)c1` (some centres undefined), in data set [2], the “k'” value turned out to be 6.43. The compound also registered an Activity in data set [10] of 4%.
